# From patent US6884597B1, “Method for detecting acetyltransferase and deacetylase activities and method for screening inhibitors or enhancers of these enzymes” (Medical & Biological Laboratories, Co., Ltd., priority 1998, dated 2005)
# T1: Sub p53-1
# T1 chain: STSRHKKLMFKTE
# T2: Sub p53-2
# T2 chain: SHLKSKKGQSTSR
# B1: recombinant CBP (protein)
# chain: QNRYHFCEKCFTEIQGENVTLGDDPSQPQTTISKDQFEKKKNDTLDPEPFVDCKECGRKMHQICVLHYDIIWPSGFVCDNCLKKTGRPRKENKFSAKRLQTTRLGNHLEDRVNKFLRRQNHPEAGEVFVRVVASSDKTVEVKPGMKSRFVDSGEMSESFPYRTKALFAFEEIDGVDVCFFGMHVQEYGSDCPPPNTRRVYISYLDSIHFFRPRCLRTAVYHEILIGYLEYVKKLGYVTGHIWACPPSEGDDYIFHCHPPDQKIPKPKRLQEWYKKMLDKAFAERIIHDYKDIFKQATEDRLTSAKELPYFEGDFWPNVLEESIKELEQEEEERKKEESTAASETTEGSQGDSKNAKKKNNKKTNKNKSSISRANKKKPSMPNVSNDLSQKLYATMEKHKEVFFVIHLHAGPVINTLPPIVDPDPLLSCDLMDGRDAFLTLARDKHWEFSSLRRSKWSTLCMLVELHTQGQDRFVYTCNEC
# Key:
# histone deacetylase = test: Detection of change in acetylation of histone in cells with anti-acetylated lysine antibody (cell ELISA); assay type: cell-based, human; conditions: Hela cells, 8 hours
# Procedure: Hela cells were spread onto a 96-well plate for cell culture by adjusting 2500 cells per well (culture medium was DMEM, 200 μl thereof was used per well), and cultured at 37° C. overnight in a 5% CO2 incubator to tightly attach the cells onto the plate. • 3. Treatment with known Inhibitors for Histone Deacetylase […]
# The medium was aspirated from each well without touching the cells, and each well was washed with 200 μl of PBS three times. After washing, 200 μl of 100% methanol cooled at −20° C. in advance was added to each well, left at room temperature for 5 min to fix the cells. […] was completely aspirated and dried.
# The anti-acetylated lysine residue antibody was diluted to 0.5 μg/ml with the antibody dilution buffer and 100 μl thereof was added to each washed well, and left at 30° C. for 1 hour (the first reaction). After the first reaction, each well was washed with the washing buffer in the same manner, and 100 μl of goat anti-rabbit Ig (H+L) horse radish peroxidase label (MBL) diluted 2000 folds with the antibody dilution buffer was added to each well, and left at 30° C. for 1 hour (the second reaction). Each well was washed with washing buffer, and 100 μl of horse radish peroxidase substrate solution was added to each well and incubated at 30° C. for 30 min for the coloring reaction. 100 μl of the 1.5 N phosphate solution was added thereto to terminate the coloring reaction. Absorbance at 450 nm was measured using a microtiter plate reader.
# As a result, an increase of absorbance was observed depending on the concentration of the deacetylase inhibitors (FIGS. 13 and 14, and Tables 1 and 2). In this measurement, a stronger inhibition of deacetylation of histone in cells accompanies a larger degree of acetylation of histone, and absorbance was increased depending on the increase in the concentration of antigen (an acetylated histone). Therefore, an inhibition of the deacetylase activity correlates to an increase of absorbance.
# CMV promoter = CMV promoter activity in pcDNA3-GFP-harboring CHO cells detected using the GFP reporter gene; assay type: cell-based; conditions: 8 hours
# Procedure: A plasmid vector (pcDNA3-GFP), in which GFP gene was introduced into a multicloning site immediately downstream of CMV promoter in pcDNA3 expression vector for mammalian cells in the forward direction was prepared by the standard method using E. coli. • 2. Introduction of the Plasmid Vector into Cells and Screening of Plasmid-Harboring Cells
# pcDNA3-GFP was introduced into CHO cells by the lipofection method, and cultured for 24 hours at 37° C. in a 5% CO2 incubator (4 ml of DMEM was used as a culture medium per 6 cm-plate). Neomycin, an antibiotic, the resistance gene of which is carried on pcDNA3 plasmid, was added to the medium, and cultured for 2 weeks to select cells harboring pcDNA3-GFP. During this screening, the medium was replaced with a new one containing neomycin every four days. • 3. Screening of the Plasmid-Harboring Cells in which the Promoter Activity is Inhibited
# The clones of the screened cells were transferred to separate plates and cultured. […] Several clones in which emission of the product of the GFP gene ligated downstream of CMV promoter was weak or was hardly detected were selected.
# These cells were spread onto a 96-well plate for cell culture, adjusted to about 2500 cells per well (200 μl of DMEM was used as the culture medium per well), and cultured overnight (about 10 to 20 hours) at 37° C. in a 5% CO2 incubator to tightly attach the cells onto the plate. […]
# The amount of GFP proteins expressing in cells in each well of the treated 96-well plate was measured with a fluorescent multiplate reader as change of fluorescence intensity.
# As a result, an increase of florescence intensity was observed depending on the concentration of the deacetylase inhibitors (FIGS. 15, 16 and Tables 3 and 4).
# Sub p53-1 = molecular target: T1, Sub p53-1
# Sub p53-2 = molecular target: T2, Sub p53-2
# [1] = system: sub p53-1 and sub p53-2 peptides; test: ELISA system for measuring the acetyltransferase activity (liquid and solid phase); assay type: biochemical, human; conditions: 0 to 10 μg/ml; liquid and solid phases; depending on the concentration; FIGS. 9 and 10
# Procedure: Two peptide substrates “Sub p53-1” (SEQ ID NO: 13/Bio-STSRHKKLMFKTE) and “Sub p53-2” (SEQ ID NO: 14/Bio-SHLKSKKGQSTSR) comprising the 373rd and 382nd lysine residues of the amino acid sequence of human p53, respectively, reported as an acetylation sites of acetyltransferase, were prepared by a peptide synthesizer. Amino acids in the peptide are shown in one-letter codes, and “Bio” at the amino ends means biotin. Ninety percent or higher purity was confirmed by HPLC. “Sub p53-1” and “Sub-p53-2” were composed of amino acids 376 to 388 and amino acids 367 to 379, respectively. […] The amplified PCR product was subcloned to pGEX, expressed as a fusion with GST, and purified (GST-p53 Cter). • (2) Preparation of a Peptide Substrate, “GST-p53 Cter” and a Streptoavidin Sensitized Plate […]
# The synthesized peptide substrates and a recombinant acetyltransferase were reacted in the liquid phase, and the enzyme activity was measured by the ELISA system using a microtiter plate. […] 100 μl of 1.5 N phosphate solution were added to terminate the coloring reaction, and absorbance at 450 nm was measured using a microtiter plate reader. • Solid Phase Analysis System (Refer to FIG. 2) […]
molecule,measurement,setting,value
"CCCC(=O)O [S. B., butyric acid]",Absorbance at 450 nm,histone deacetylase; S. B. concentration 0.012 mM,0.091
same,Absorbance at 450 nm,histone deacetylase; S. B. concentration 0.049 mM,0.077
same,Absorbance at 450 nm,histone deacetylase; S. B. concentration 0.195 mM,0.097
same,Absorbance at 450 nm,histone deacetylase; S. B. concentration 0.78 mM,0.136
same,Absorbance at 450 nm,histone deacetylase; S. B. concentration 3.13 mM,0.306
same,Absorbance at 450 nm,histone deacetylase; S. B. concentration 12.5 mM,0.551
same,Absorbance at 450 nm,histone deacetylase; S. B. concentration 50 mM,0.545
same,Relative fluorescence intensity (%),CMV promoter; S. B. concentration 0.012 mM,8.5%
same,Relative fluorescence intensity (%),CMV promoter; S. B. concentration 0.049 mM,7.8%
same,Relative fluorescence intensity (%),CMV promoter; S. B. concentration 0.195 mM,13.3%
same,Relative fluorescence intensity (%),CMV promoter; S. B. concentration 0.78 mM,15.7%
same,Relative fluorescence intensity (%),CMV promoter; S. B. concentration 3.13 mM,50.3%
same,Relative fluorescence intensity (%),CMV promoter; S. B. concentration 12.5 mM,98.5%
same,Relative fluorescence intensity (%),CMV promoter; S. B. concentration 50 mM,100%
"CC(/C=C/C(=O)NO)=C\[C@@H](C)C(=O)c1ccc(N(C)C)cc1 [TSA, trichostatin A]",Absorbance at 450 nm,histone deacetylase; TSA concentration 0.5 nM,0.056
same,Absorbance at 450 nm,histone deacetylase; TSA concentration 1.95 nM,0.056
same,Absorbance at 450 nm,histone deacetylase; TSA concentration 7.8 nM,0.041
same,Absorbance at 450 nm,histone deacetylase; TSA concentration 31.3 nM,0.071
same,Absorbance at 450 nm,histone deacetylase; TSA concentration 125 nM,0.095
same,Absorbance at 450 nm,histone deacetylase; TSA concentration 500 nM,0.278
same,Absorbance at 450 nm,histone deacetylase; TSA concentration 2000 nM,0.476
same,Relative fluorescence intensity (%),CMV promoter; TSA concentration 0.5 nM,2.2%
same,Relative fluorescence intensity (%),CMV promoter; TSA concentration 1.95 nM,1.8%
same,Relative fluorescence intensity (%),CMV promoter; TSA concentration 7.8 nM,5.1%
same,Relative fluorescence intensity (%),CMV promoter; TSA concentration 31.3 nM,12.3%
same,Relative fluorescence intensity (%),CMV promoter; TSA concentration 125 nM,34.2%
same,Relative fluorescence intensity (%),CMV promoter; TSA concentration 500 nM,73.1%
same,Relative fluorescence intensity (%),CMV promoter; TSA concentration 2000 nM,100%
B1,"acetyltransferase activity (ELISA with anti-acetylated peptide antibody, absorbance at 450 nm; liquid and solid phase)",Sub p53-1,"the acetyltransferase activities to ""subp53-1"" and ""sub p53-2"" peptides depending on the concentration of CBP were detected"
same,"acetyltransferase activity (ELISA with anti-acetylated peptide antibody, absorbance at 450 nm; liquid and solid phase)",Sub p53-2,"the acetyltransferase activities to ""subp53-1"" and ""sub p53-2"" peptides depending on the concentration of CBP were detected"
same,acetyltransferase activities to sub p53-1 and sub p53-2 peptides,[1],detected
